Laboratory results as given in Sander's compilation of Henry's law constants (doi:10.1021/es00047a026).

assay: Henry solubility constant Hcp at 298.15 K (mol/(m3 Pa)); conditions: reference: Hoff et al. (1993)

SMILES | Henry solubility constant Hcp
Cc1ccccc1 [methylbenzene] | 0.0013
Clc1cccc(Cl)c1 [1,3-dichlorobenzene] | 0.0034
c1ccccc1 [benzene] | 0.0017
ClC(Cl)=C(Cl)Cl [tetrachloroethene] | 0.00063
Clc1ccccc1 [chlorobenzene] | 0.0026
ClC=C(Cl)Cl [trichloroethene] | 0.0011
CC(C)=O [propanone] | 0.27
ClC(Cl)(Cl)Cl [tetrachloromethane] | 0.00036
CC(Cl)(Cl)Cl [1,1,1-trichloroethane] | 0.00053
ClCCl [dichloromethane] | 0.0041
